# Biological target: human lung tryptase
# Assay: β-Tryptase In-Vitro Enzyme Assay
# Type: biochemical
# Conditions: human lung tryptase 1 nM, substrate H-D-HHT-Ala-Arg-pNa 500 μM, pH 7.4, room temperature
# Protocol: The β-tryptase assay was conducted with human lung tryptase (Cortex Biochem #CP3033) in an aqueous buffer (10 mM Tris, 10 mM Hepes, 150 mM NaCl, 0.1% PEG 8000, pH 7.4) using the chromogenic substrate H-D-HHT-Ala-Arg-pNa. […] Percent inhibition was calculated by comparing the initial reaction velocity of samples without inhibitor to those with inhibitor. The initial reaction velocities were analyzed using Microsoft Excel.
row,Compound,IC50
1,"CC1(C)CC(=O)c2c(SCc3ccccc3)sc(C(=O)N3CCC4(CC3)COc3ccc(CN)cc34)c2C1 [Cpd 232, 1-(3-benzylthio-4-oxo-6,6-dimethyl-6,7-dihydro-5H-benzo[c]thien-1-yl)carbonyl-5′-aminomethyl-spiro[piperidine-4,3′-(2H)-benzo[b]furan]]",0.015 µM
2,"NCc1ccc2c(c1)C1(CCN(C(=O)c3cc4ccsc4s3)CC1)CO2 [Cpd 233, 1-thieno[2,3-b]thien-2-ylcarbonyl-5′-aminomethyl-spiro[piperidine-4,3′-(2H)-benzo[b]furan]]",0.082 µM
3,"CSc1sc(C(=O)N2CCC3(CC2)COc2ccc(CN)cc23)c2ccccc12 [Cpd 234, 1-(3-methylthio-benzo[c]thien-1-yl)carbonyl-5′-aminomethyl-spiro[piperidine-4,3′-(2H)-benzo[b]furan]]",0.0095 µM
4,"COc1cccc2c(C(=O)N3CCC4(CC3)COc3ccc(CN)cc34)sc(SC)c12 [Cpd 235, 1-(3-methylthio-4-methoxy-benzo[c]thien-1-yl)carbonyl-5′-aminomethyl-spiro[piperidine-4,3′-(2H)-benzo[b]furan]]",0.0092 µM
5,"COc1ccc2[nH]cc(C(=O)N3CCC4(CC3)COc3ccc(CN)cc34)c2c1 [Cpd 238, 1-(5-methoxy-indol-3-yl)carbonyl-5′-aminomethyl-spiro[piperidine-4,3′-(2H)-benzo[b]furan]]",0.21 µM
6,"NCc1ccc2c(c1)C1(CCN(C(=O)c3cn(Cc4ccccc4)c4ccccc34)CC1)CO2 [Cpd 239, 1-(1-benzyl-indol-3-yl)carbonyl-5′-aminomethyl-spiro[piperidine-4,3′-(2H)-benzo[b]furan]]",0.27 µM
7,"NCc1ccc2c(c1)C1(CCN(C(=O)c3sc(SCc4ccccc4)c4c3CCC=C4)CC1)CO2 [Cpd 241, 1-(3-benzylthio-7-hydro-6H-benzo[c]thien-1-yl)carbonyl-5′-aminomethyl-spiro[piperidine-4,3′-(2H)-benzo[b]furan]]",0.0051 µM
8,"NCc1ccc2c(c1)C1(CCN(C(=O)/C=C\c3c[nH]cn3)CC1)CO2 [Cpd 243, (Z)-1-(imidazol-4-ylethenyl)carbonyl-5′-aminomethyl-spiro[piperidine-4,3′-(2H)-benzo[b]furan]]",3.1 µM
9,"NCc1ccc2c(c1)C1(CCN(C(=O)c3ccc(C=O)s3)CC1)CO2 [Cpd 245, 1-(5-formyl-thien-2-yl)carbonyl-5′-aminomethyl-spiro[piperidine-4,3′-(2H)-benzo[b]furan]]",0.51 µM
10,"NCc1ccc2c(c1)C1(CCN(C(=O)c3cc4c(s3)CCC4)CC1)CO2 [Cpd 246, 1-(5,6-dihydro-4H-cyclopenta[b]thien-2-yl)carbonyl-5′-aminomethyl-spiro[piperidine-4,3′-(2H)-benzo[b]furan]]",0.2 µM
11,"CSc1ccc(C(=O)N2CCC3(CC2)COc2ccc(CN)cc23)s1 [Cpd 247, 1-(5-methylthio-thien-2-yl)carbonyl-5′-aminomethyl-spiro[piperidine-4,3′-(2H)-benzo[b]furan]]",0.036 µM
12,"CCn1cc(C(=O)N2CCC3(CC2)COc2ccc(CN)cc23)c2cccc(C)c21 [Cpd 250, 1-(1-ethyl-7-methyl-indol-3-yl)carbonyl-5′-aminomethyl-spiro[piperidine-4,3′-(2H)-benzo[b]furan]]",0.44 µM
13,"NCc1ccc2c(c1)C1(CCN(C(=O)/C=C/c3ccoc3)CC1)CO2 [Cpd 251, (E)-1-(furan-3-ylethenyl)carbonyl-5′-aminomethyl-spiro[piperidine-4,3′-(2H)-benzo[b]furan]]",1.5 µM
14,"NCc1ccc2c(c1)C1(CCN(C(=O)/C=C/c3cccs3)CC1)CO2 [Cpd 254, (E)-1-(thien-2-ylethenyl)carbonyl-5′-aminomethyl-spiro[piperidine-4,3′-(2H)-benzo[b]furan]]",0.37 µM
15,"NCc1ccc2c(c1)C1(CCN(C(=O)/C=C/c3ccsc3)CC1)CO2 [Cpd 255, (E)-1-(thien-3-ylethenyl)carbonyl-5′-aminomethyl-spiro[piperidine-4,3′-(2H)-benzo[b]furan]]",0.58 µM
16,"Cc1cc(C(=O)N2CCC3(CC2)COc2ccc(CN)cc23)sc1C(O)O [Cpd 256, 1-(5-dihydroxymethyl-4-methyl-thien-2-yl)carbonyl-5′-aminomethyl-spiro[piperidine-4,3′-(2H)-benzo[b]furan]]",0.82 µM
17,"Cc1cc(C(=O)N2CCC3(CC2)COc2ccc(CN)cc23)sc1Br [Cpd 259, 1-(4-methyl-5-bromo-thien-2-yl)carbonyl-5′-aminomethyl-spiro[piperidine-4,3′-(2H)-benzo[b]furan]]",0.055 µM
18,"CCOc1sc(C(=O)N2CCC3(CC2)COc2ccc(CN)cc23)c2c1C(=O)CCC2 [Cpd 261, 1-(3-ethoxy-4-oxo-5,6,7-trihydro-4H-benzo[c]thien-1-yl)carbonyl-5′-aminomethyl-spiro[piperidine-4,3′-(2H)-benzo[b]furan]]",0.073 µM
19,"NCc1ccc2c(c1)C1(CCN(C(=O)C#Cc3ccc(O)cc3)CC1)CO2 [Cpd 264, 1-(4-hydroxy-phenylethynyl)carbonyl-5′-aminomethyl-spiro[piperidine-4,3′-(2H)-benzo[b]furan]]",3.2 µM
20,"NCc1ccc2c(c1)C1(CCN(C(=O)/C=C/c3cccc(O)c3)CC1)CO2 [Cpd 265, (E)-1-(3-hydroxy-phenylethenyl)carbonyl-5′-aminomethyl-spiro[piperidine-4,3′-(2H)-benzo[b]furan]]",0.87 µM
21,"CC(C)(C)c1ccc(C(=O)N2CCC3(CC2)COc2ccc(CN)cc23)s1 [Cpd 266, 1-(5-tert-butyl-thien-2-yl)carbonyl-5′-aminomethyl-spiro[piperidine-4,3′-(2H)-benzo[b]furan]]",0.2 µM
22,"CC(C)(C)c1ccc(/C=C/C(=O)N2CCC3(CC2)COc2ccc(CN)cc23)cc1 [Cpd 268, (E)-1-(4-tert-butyl-phenylethenyl)carbonyl-5′-aminomethyl-spiro[piperidine-4,3′-(2H)-benzo[b]furan]]",2.9 µM
23,"NCc1ccc2c(c1)C1(CCN(C(=O)c3cccc4c3C(=O)c3ccccc3-4)CC1)CO2 [Cpd 270, 1-(9-oxo-fluoren-1-yl)carbonyl-5′-aminomethyl-spiro[piperidine-4,3′-(2H)-benzo[b]furan]]",6.4 µM

# The remaining compounds from weak to strong by IC50, led by results:
row,IC50,Compound
1,5.1 µM,"NCc1ccc2c(c1)C1(CCN(C(=O)NCc3ccccc3)CC1)CO2 [Cpd 263, 1-benzylaminocarbonyl-5′-aminomethyl-spiro[piperidine-4,3′-(2H)-benzo[b]furan]]"
2,4.5 µM,"NCc1ccc2c(c1)C1(CCN(C(=O)c3ccc(Cl)c(Cl)c3)C(=O)C1)CO2 (centres unmarked) [Cpd 262, 1-(3,4-dichlorophenyl)carbonyl-2-oxo-5′-aminomethyl-spiro[piperidine-4,3′-(2H)-benzo[b]furan]]"
3,2.5 µM,"NCc1ccc2c(c1)C1(CCN(C(=O)/C=C/c3ccncc3)CC1)CO2 [Cpd 244, (E)-1-(pyridin-4-ylethenyl)carbonyl-5′-aminomethyl-spiro[piperidine-4,3′-(2H)-benzo[b]furan]]"
4,2.4 µM,"NCc1ccc2c(c1)C1(CCN(C(=O)/C=C/c3cccnc3)CC1)CO2 [Cpd 253, (E)-1-(pyridin-3-ylethenyl)carbonyl-5′-aminomethyl-spiro[piperidine-4,3′-(2H)-benzo[b]furan]]"
5,1.6 µM,"NCc1ccc2c(c1)C1(CCN(C(=O)/C=C/c3ccccn3)CC1)CO2 [Cpd 252, (E)-1-(pyridin-2-ylethenyl)carbonyl-5′-aminomethyl-spiro[piperidine-4,3′-(2H)-benzo[b]furan]]"
6,1 µM,"NCc1ccc2c(c1)C1(CCN(C(=O)c3cccc4c3Cc3ccccc3-4)CC1)CO2 [Cpd 269, 1-fluoren-1-ylcarbonyl-5′-aminomethyl-spiro[piperidine-4,3′-(2H)-benzo[b]furan]]"
7,0.83 µM,"Cc1cccc2c(C(=O)N3CCC4(CC3)COc3ccc(CN)cc34)c[nH]c12 [Cpd 249, 1-(7-methyl-indol-3-yl)carbonyl-5′-aminomethyl-spiro[piperidine-4,3′-(2H)-benzo[b]furan]]"
8,0.75 µM,"NCc1ccc2c(c1)C1(CCN(C(=O)c3c[nH]c4ccccc34)CC1)CO2 [Cpd 236, 1-indol-3-ylcarbonyl-5′-aminomethyl-spiro[piperidine-4,3′-(2H)-benzo[b]furan]]"
9,0.65 µM,"NCc1ccc2c(c1)C1(CCN(C(=O)/C=C\c3ccco3)CC1)CO2 [Cpd 242, (Z)-1-(furan-2-ylethenyl)carbonyl-5′-aminomethyl-spiro[piperidine-4,3′-(2H)-benzo[b]furan]]"
10,0.44 µM,"NCc1ccc2c(c1)C1(CCN(C(=O)c3cc4c(s3)CCCCC4)CC1)CO2 [Cpd 257, 1-(5,6,7,8-tetrahydro-4H-cyclohepta[b]thien-2-yl)carbonyl-5′-aminomethyl-spiro[piperidine-4,3′-(2H)-benzo[b]furan]]"
11,0.34 µM,"COC(=O)c1ccc(C(=O)N2CCC3(CC2)COc2ccc(CN)cc23)s1 [Cpd 267, 1-(5-methoxycarbonyl-thien-2-yl)carbonyl-5′-aminomethyl-spiro[piperidine-4,3′-(2H)-benzo[b]furan]]"
12,0.33 µM,"N#C/C(=C\c1ccccc1)C(=O)N1CCC2(CC1)COc1ccc(CN)cc12 [Cpd 248, (E)-1-(1-cyano-2-phenylethenyl)carbonyl-5′-aminomethyl-spiro[piperidine-4,3′-(2H)-benzo[b]furan]]"
13,0.27 µM,"Cn1cc(C(=O)N2CCC3(CC2)COc2ccc(CN)cc23)c2ccccc21 [Cpd 237, 1-(1-methyl-indol-3-yl)carbonyl-5′-aminomethyl-spiro[piperidine-4,3′-(2H)-benzo[b]furan]]"
14,0.028 µM,"CSc1sc(C(=O)N2CCC3(CC2)COc2ccc(CN)cc23)cc1C#N [Cpd 258, 1-(4-cyano-5-methylthio-thien-2-yl)carbonyl-5′-aminomethyl-spiro[piperidine-4,3′-(2H)-benzo[b]furan]]"
15,0.0018 µM,"NCc1ccc2c(c1)C1(CCN(C(=O)c3sc(SCc4ccccc4)c4ccccc34)CC1)CO2 [Cpd 240, 1-(3-benzylthio-benzo[c]thien-1-yl)carbonyl-5′-aminomethyl-spiro[piperidine-4,3′-(2H)-benzo[b]furan]]"

# From patent US8158792B2, “Spiropiperidines for use as tryptase inhibitors” (Janssen Pharmaceutica N.V., priority 2007, dated 2012)
